Legend:
[1] = tested on: myocardial infarction in mice; conditions: after induction of MI in mice, 10 injections per heart directly into the infarction zone; cited from earlier work
[2] = Metabolic stability assay in pooled human lung microsomes; type: in vitro ADME; conditions: pooled human lung microsomes with co-factors; also printed as 23.1 h
Protocol: (§1) For the organ specific enzymatic degradation of a compound a reaction mix (1 ml) was made, and aliquots (50 μl) were taken at the timepoints indicated in the Figures to calculate the elimination constant by measuring the compound concentration over time using HPLC-based quantification.
(§2) The reaction mix contains: • Subcellular fraction of the specific organ (Liver S9, Lung microsomes, or Saliva), • Co-Factor Solution (NADPH and UDPGA). Co-factors are used in this assay to activate the enzymatic activity of the main metabolizing enzymes of the organ specific subcellular fractions. NADPH is needed for the Phase I oxidation where Cytochrome P450 […] accounts for the most and UDPGA is needed for the Phase II glucuronidation, • and the desired compound: 5-ML as active ingredient, Diclofenac as control, water as control; diluted in DMSO.
(§3) Preparation of the reaction mix (in Triplicates): • Take 980 μl organ specific subcellular fraction solution (0.5 mg/ml) of human liver S9 fraction in DPBS with Calcium and Magnesium, • Add 10 μl of substance stock solution dissolved in DMSO (c 0,003 M) from either 5-ML, Diclofenac or water as solvent control. […] Cells 2020, 9, 2048).
Next, 5-ML was exposed to lung microsomes (drug delivery by inhalation).
Materials & Methods are the same as in Example 4, except that lung microsomes were used instead of S9 liver fraction.

[3] = Metabolic stability assay in human liver S9 fraction; type: in vitro ADME; conditions: for elimination half live in liver S9: human liver S9 0.5 mg/ml, NADPH and UDPGA co-factors, 3 μM compound, 37° C., HPLC, first order kinetic
From the text: To gain insights into the enzymatic stability of a drug, the metabolic stability assay serves as an effective tool and also helps to separate applicable routes for drug uptake from less applicable ones e.g. due to fast hepatic clearance. When substances are applied orally, the liver clearance (first-pass effect) has the most influence on drug clearance and further on the amount of active drug reaching the site of action. Thus, in order to test hepatic clearance, 5-ML was exposed to subcellular fractions of liver and compound concentrations were assessed in a time-dependent manner.
The concept of in vitro metabolic stability testing is based on and predicts well liver metabolic clearance in vivo. Therefore, the subcellular fraction which accounts for most of the enzymatic activity of the organ is used, which contains intra and extra cellular enzymes of the liver. The elimination half live of 5-ML was calculated by the assessment of the elimination constant.
as §1, §2
All compounds were tested in triplicates, except the solvent control (water instead of active compound 5-ML). […]

[4] = tested on: myocardial infarction rat model; conditions: direct injection into the peri-infarction zone; cited from earlier work
[5] = tested on: ATRA-signalling; conditions: Danzl et al. 2019; cited from earlier work
[6] = Metabolic stability assay in pooled human saliva; type: in vitro ADME
Protocol: as §1, §2, §3
Materials & Methods are the same as in Example 4, except that pooled human saliva was used instead of S9 liver fraction. […]

[7] = literature value; cited from earlier work

elimination half live in lung microsomes [2] [min]	elimination half live in liver S9 [3] [min]	elimination constant of exponential first order kinetic ([3]; human liver S9, Ln(2)/k gives half live, time axis in minutes, in min-1)	elimination in saliva with co-factors ([6]; with co-factors (NADPH and UDPGA))	elimination half-life in saliva without co-factor ([6]; without co-factor solution) [h]	SMILES	infarction area [1]	arteriogenesis in vivo [4]	inhibition of ATRA-signalling [5]	estimated half live in human liver in literature [7] [h]
1386	10.66	0,065	no elimination	115.5	C/C=C(/C)C(=O)OC[C@H]1[C@@H](Cc2ccc(OC)c(OC)c2)CO[C@@H]1c1cc(OC)c(OC)c(OC)c1 [5-ML]	reduces the infarction area	induced arteriogenesis	capable of inhibiting ATRA-signalling	
	173				O=C(O)Cc1ccccc1Nc1c(Cl)cccc1Cl [diclofenac, reference compound]				1 to 3

Reference: patent US12564570B2, “Use of leoligin in the prevention of tissue damage” (UNIVERSITÄT LINZ, priority 2020, dated 2026)
